Results taken from paper PMC10470319 (iScience, 2023).
“Also recorded” adds a separate entry of the source.

Tests used:
SARS-CoV-2 Mpro [1] = target: T1, SARS-CoV-2 Mpro (Severe acute respiratory syndrome coronavirus 2, UniProt P0DTD1); type: biochemical
SARS-CoV-2 Mpro [2] = target: T1, SARS-CoV-2 Mpro; type: biochemical; remark: listed apart in the source
SARS-CoV-2 Mpro [3] = target: T1, SARS-CoV-2 Mpro; assay: biochemical; conditions: for inhibition of Mpro in the initial screen: 17 μM
SARS-CoV-2 [4] = type: cell-based
SARS-CoV-2 infection = conditions: in vivo; cited from earlier work
SARS-CoV-2 [5] = conditions: read-out: IC50 for inhibition of SARS-CoV-2 replication; cited from earlier work
Calu-3 cells = conditions: cited from earlier work

O=c1c(-c2c(O)cc(O)c3c(=O)cc(-c4ccc(O)cc4)oc23)c(-c2ccc(O)cc2)oc2cc(O)cc(O)c12 [3,8'-Biapigenin]
inhibition of Mpro activity, mass spectrometry assay (SARS-CoV-2 Mpro [1]): completely inhibited

O=c1cc(-c2ccc(O)c(-c3c(O)cc(O)c4c(=O)cc(-c5ccc(O)cc5)oc34)c2)oc2cc(O)cc(O)c12 [Amentoflavone]
inhibition of Mpro activity, mass spectrometry assay (SARS-CoV-2 Mpro [1]): completely inhibited
reversibility of Mpro inhibition on dilution (SARS-CoV-2 Mpro [2]): reversible

O=c1cc(-c2ccccc2)oc2cc(O)c(O)c(O)c12 [Baicalein, reference compound]
inhibition of Mpro in the initial screen (SARS-CoV-2 Mpro [3]): showed inhibition
reversibility of Mpro inhibition on dilution (SARS-CoV-2 Mpro [2]): reversible
inhibition of SARS-CoV-2 replication (in words) (SARS-CoV-2 [4]): inhibited SARS-CoV-2 infection
body weight after SARS-CoV-2 infection (SARS-CoV-2 infection): prevented reduction in body weight
lung injury resulting from SARS-CoV-2 infection (SARS-CoV-2 infection): decreased lung injury

O=c1c(O)c(-c2cc(O)c(O)c(O)c2)oc2cc(O)cc(O)c12 [Myricetin, reference compound]
inhibition of Mpro in the initial screen (SARS-CoV-2 Mpro [3]): showed inhibition
reversibility of Mpro inhibition on dilution (SARS-CoV-2 Mpro [2]): irreversible
inhibition of SARS-CoV-2 replication (in words) (SARS-CoV-2 [4]): inhibits SARS-CoV-2 replication

O=c1cc(-c2ccc(O)cc2)oc2cc(O)cc(O)c12 [apigenin]
IC50 (SARS-CoV-2 Mpro [3]): 20 ± 9 µM
reversibility of Mpro inhibition on dilution (SARS-CoV-2 Mpro [2]): reversible
inhibition of SARS-CoV-2 replication (in words) (SARS-CoV-2 [4]): slightly better than baicalein at 50 μM; also recorded: inhibits viral replication at concentrations that are not toxic
toxicity in cell culture (Vero E6 cells): some toxicity
IC50 (SARS-CoV-2 [5]): 5.11 ± 0.26 µM
CC50 (Calu-3 cells): 302 ± 15 µM

O=C1C[C@@H](c2ccccc2)Oc2cc(O)cc(O)c21 [pinocembrin]
inhibition of Mpro (in words) (SARS-CoV-2 Mpro [3]): relatively poor inhibition
